Measurements published in US20260166175A1, “FABRICATION OF CYCLODEXTRIN PARTICLES AND CRYOGELS AND METHODS OF USING AND MAKING THEREOF” (University of South Florida, priority 2022, published 2026).

Tests used:
L929 fibroblasts = assay: Cytotoxicity (MTT cell viability) on L929 fibroblasts; format: cell-based; details: 1.0 mg/mL, 24 h incubation
Method: For the biocompatibility analysis, L929 fibroblasts were cultured in an air-humidified incubator (5% CO2 atmosphere) in DMEM supplemented with 10% fetal bovine serum (FBS) at up to 70% cell confluency. The cytotoxicity analysis of CD-based materials was performed by MTT assay which determines the metabolic activity of living cells.
The L929 fibroblast cell suspension was adjusted to a density of 5×10^5 cells mL^−1 and gently homogenized. Then, 100 µL of this cell suspension was seeded onto wells on a 96-well plate. The well-plate was incubated at 37° C. under 5% CO2 in an air-humidified incubator for 24 h. After adherence of the fibroblasts, the culture medium was removed from the wells and 100 μL of CD-based particle suspension in culture medium DMEM at different concentrations between 50 and 1000 μg/mL was added to the cells. The plate was incubated at 37° C. under 5% CO2 in an air-humidified incubator for 24 h more. At the end of the incubation, the medium was removed from the wells, the cells were washed with phosphate-buffered saline solution (PBS) two times. After this step, 100 μL of MTT (Tetrazolium dye) at 0.5 mg/mL concentration was added to each well. The plate was incubated at room temperature in the dark for 4 h. Then, MTT solution was removed from the wells and 200 μL of DMSO was placed into the wells to dissolve the blue formazan crystals. Finally, the absorbance values were measured at 590 nm with a plate reader (Thermo Scientific™ Multiskan™). The absorbance value of control group was accepted as 100% viability and the decrease in cell viability % was estimated based on the absorbance values of the wells treated with CD-based materials by the following equation, Cell viability
Where Amaterial is the absorbance value of the cells interacting with CD-based materials and Acontrol is the absorbance value of the untreated cells as control. All assays were carried out in triplicate and the results are given with standard deviations.

[1] = Bisphenol A or curcumin loading into p(CD) particles (adsorption); format: physicochemical; details: for absorbed BPA: guest BPA; for absorbed CUR: guest CUR
Method: Then, BPA-loaded CD-based particles were washed with ethanol-water (1:1) mixture one time by centrifugation at 10 000 rpm for 10 min. The BPA loaded CD-based particles were dried by freeze dryer for 48 h. Similarly, curcumin (CUR) was loaded into p(α-CD), p(β-CD), and p(γ-CD) particles by using the same procedure as described above. […] The CUR-loaded p(CD) materials were dried by freeze dryer for 48 h. The absorbance value of the BPA/CUR solutions before and after the loading processes were measured by using UV-Vis spectroscopy (SP-UV300SRB, Spectrum, China) at 275 nm and 425 nm for BPA and CUR, respectively against the previously constructed corresponding calibration curves for BPA and CUR prepared in ethanol-water mixtures. The ethanol-water solution was prepared at 1:7 and 3:2 volume ratios for BPA and CUR, respectively.

Human blood = assay: Blood clotting assay; details: 1 mg/mL
Method: Hemolysis and blood clotting assays were performed to investigate the blood compatibility of linear α-CD, β-CD, and γ-CD and their particle forms. Human blood was obtained from healthy volunteers and approved by the Clinical Research Ethics Committee of Canakkale Onsekiz Mart University (2011-KAEK-27/2022-2200063689) and placed into tubes containing EDTA. Before the analysis, all solutions were preheated to 37° C.
For the blood clotting assay, 64 μL of 0.2 M CaCl2 aqueous solution was mixed with 810 μL of blood containing EDTA and immediately 270 μL of this blood was covered with 10 mg of linear CD or CD particle. After 10 min, 10 mL of DI water was slowly added into the tubes and centrifuged at 100 g for 1 minute. Then 10 mL of supernatant solution containing non-clotting blood was taken from the tube and diluted with 40 mL of DI water. In the separation tube, 250 μL of the blood containing EDTA was dispersed in 50 mL of DI water as a control. The blood solution was incubated at 37.5° C. in a water bath for 1 h and then, the absorbance value of the supernatant was measured at 542 nm by using UV-Vis spectroscopy. The blood clotting index of the linear CD or CD particles was evaluated from the following equation.
Where Amaterial is the absorbance value of the blood solution interacted with the CD-based materials and Acontol is the absorbance value of the blood solution without the CD-based materials as a control. All assays were carried out in triplicate and the results are given with standard deviations.

Row | SMILES | cell viability (L929 fibroblasts) [%] | absorbed BPA [1] [mmol/mmol] | absorbed CUR [1] [mmol/mmol] | blood clotting index (Human blood) [%]
1 | OCC1OC2OC3C(CO)OC(OC4C(CO)OC(OC5C(CO)OC(OC6C(CO)OC(OC7C(CO)OC(OC1C(O)C2O)C(O)C7O)C(O)C6O)C(O)C5O)C(O)C4O)C(O)C3O (stereo not drawn) [α-CD, α-cyclodextrin] | 90±7 | 0.158 | 0.482 | 93.6±2.2
2 | OCC1OC2OC3C(CO)OC(OC4C(CO)OC(OC5C(CO)OC(OC6C(CO)OC(OC7C(CO)OC(OC8C(CO)OC(OC1C(O)C2O)C(O)C8O)C(O)C7O)C(O)C6O)C(O)C5O)C(O)C4O)C(O)C3O (stereo not drawn) [β-CD, β-cyclodextrin] | 89±14 | 0.279 | 0.398 | 92.3±2.3
3 | OCC1OC2OC3C(CO)OC(OC4C(CO)OC(OC5C(CO)OC(OC6C(CO)OC(OC7C(CO)OC(OC8C(CO)OC(OC9C(CO)OC(OC1C(O)C2O)C(O)C9O)C(O)C8O)C(O)C7O)C(O)C6O)C(O)C5O)C(O)C4O)C(O)C3O (stereo not drawn) [γ-CD, γ-cyclodextrin] | 95±14 | 0.222 | 0.416 | 98.4±0.7
